Results on 19 molecules are retold here after US11103509B2 (University of Kentucky Research Foundation, priority 2018, dated 2021).

In one assay the target is T1, human mPGES-1 (Homo sapiens, UniProt O14684).
T1 construct: made in house
T1 sequence (O14684 1-152): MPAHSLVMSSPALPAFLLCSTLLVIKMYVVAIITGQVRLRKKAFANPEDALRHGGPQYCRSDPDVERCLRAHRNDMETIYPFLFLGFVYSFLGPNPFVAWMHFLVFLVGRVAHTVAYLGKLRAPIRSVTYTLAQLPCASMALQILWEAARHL
Briefly: in vitro inhibitory activity against human mPGES-1 (PGE2 enzyme immunoassay). The note with it: for inhibition at 10 µM: read-out: Inhibition (%) at 10 μM. The class given is biochemical. The procedure:
The above computational predictions were followed by in vitro activity assays for their actual inhibitory activity against human mPGES-1 using an ELISA assay previously-described.^16-17, 19 Specifically, a total of 18 FDA-approved drugs were assayed for their inhibitory activity against human mPGES-1.
The protocol for the protein preparation and in vitro activity assays were the same as described previously.^69-72 The enzyme activity assays were performed on ice in 1.5 ml microfuge tubes by using the expressed human mPGES-1. The reaction mixture contained: 0.2 M Na2HPO4/NaH2PO4, pH 7.2, 10 μL; 0.1 M GSH, 2.5 μL; diluted microsomal enzyme (80 μg/mL), 1 μL; PGH2 (0.31 mM in DMF), 5 μL; 1 μL inhibitor; and H2O in a final reaction volume of 100 μL. PGH2 was stored in dry ice and used to initiate the reaction. Compounds were incubated with the enzyme for 15 min at room temperature before the addition of cold PGH2 (1 μM final) to initiate the enzyme reaction. After 30 s, 10 μL of SnCl2 (40 mg/mL) in ethanol was added to stop the reaction. The non-enzymatic conversion of PGH2 to PGE2 was performed in the same buffer devoid of enzyme. The reaction mixture was placed on ice until PGE2 production was determined by the PGE2 enzyme immunoassay as described earlier. IC50 values of the inhibitors were calculated by using the GraphPad Prism 6.0.

Assay [1] has as its system pain in cancer patients. The note with it: cited from earlier work.
For assay [2], the system named is pain in cancer patients. The experiment in a line: clinical data mining: pain complaints in afatinib Phase III clinical trial NCT00656136. It is filed as in vivo, human. On the procedure:
To address this question, data from phase III clinical trial (NCT00656136) was also analyzed for drug afatinib, another EGFR and HER2 dual inhibitor approved by the FDA in 2013.

[3] abbreviates: 10 μM, single-concentration screening.
[4] abbreviates: NCT00656136, with drug total 390.
[5] abbreviates: NCT00656136, may include multiple types of pain from each patient.

Each structure is given as a SMILES string. Read-outs that look alike come from different tables or passages of the source.

`CS(=O)(=O)CCNCc1ccc(-c2ccc3ncnc(Nc4ccc(OCc5cccc(F)c5)c(Cl)c4)c3c2)o1` [Lapatinib Ditosylate]: the inhibition at 10 µM at human mPGES-1 (setting [3]) turned out to be 99%.
The molecule `Cc1ccccc1C(=O)Nc1ccc(C(=O)N2CCCC(O)c3cc(Cl)ccc32)c(C)c1` (centres unmarked) [Tolvaptan] displayed an IC50 against human mPGES-1 of 10.2 ± 2.5 µM. For the same molecule, the inhibition at 10 µM on human mPGES-1 (setting [3]) amounted to 52%.
For `C[C@H]1[C@H](NC(=O)/C(=N\OC(C)(C)C(=O)O)c2csc(N)n2)C(=O)N1S(=O)(=O)O` [Aztreonam], the IC50 on human mPGES-1 was 11.4 ± 1.1 µM. In addition, on human mPGES-1 (setting [3]), the inhibition at 10 µM is 53%.
Consider `CC(C)(C)C(=O)OCOP(=O)(COCCn1cnc2c(N)ncnc21)OCOC(=O)C(C)(C)C` [Adefovir Dipivoxil], for which, at human mPGES-1 (setting [3]), the inhibition at 10 µM worked out at 19%.
In the case of `CN(C)C/C=C/C(=O)Nc1cc2c(Nc3ccc(F)c(Cl)c3)ncnc2cc1O[C@H]1CCOC1` [afatinib], in the assay with pain in cancer patients [1] (setting [4]), the “Back Pain, With drug pains” value is listed as 29; the “Headache, With drug pains” value is 21; the “Pain In Extremity, With drug pains” value is reported as 27; the “Pain-throat/pharynx/larynx, With drug pains” value is recorded as 27. In the assay with pain in cancer patients [1] (NCT00656136), the “# of patients complaining pain/# of patients given afatinib, Counts: Back Pain” value is reported as 29/390; the “# of patients complaining pain/# of patients given afatinib, Counts: Headache” value was 21/390; the “# of patients complaining pain/# of patients given afatinib, Counts: Pain - chest/thorax” value is listed as 27/390; the “# of patients complaining pain/# of patients given afatinib, Counts: Pain in Extremity” value is given as 27/390. Also, in the assay with pain in cancer patients [1] (NCT00656136), the “patients complaining pain, Percentage(%): Back Pain” value is 7.43%; the “patients complaining pain, Percentage(%): Headache” value is listed as 5.38%; the “patients complaining pain, Percentage(%): Pain - chest/thorax” value was 6.92%; the “patients complaining pain, Percentage(%): Pain in Extremity” value is on record as 6.92%. Moreover, the “analgesic effect (in words)” value with pain in cancer patients [2] (NCT00656136, compared to placebo) is on record as “no analgesic effects at all”. In addition, in the assay with pain in cancer patients [2] (setting [5]), the “# of patients complaining pain/# of patients given afatinib, Counts: Total pain occurrence” value is 104/390 and the “patients complaining pain, Percentage(%): Total pain occurrence” value was found to be 26.67%.
Turning to `CO[C@@]1(NC(=O)C2SC(=C(C(N)=O)C(=O)[O-])S2)C(=O)N2C(C(=O)[O-])=C(CSc3nnnn3C)CS[C@@H]21.[Na+].[Na+]` (some centres unmarked) [Cefotetan Disodium], the half-inhibitory concentration (IC50) against human mPGES-1 was determined as 13.5 ± 4 µM. Besides, the “Inhibition (%) at 10 μM” value at human mPGES-1 (setting [3]) amounted to 44%.
On human mPGES-1, `COc1cc(C)c(/C=C/C(C)=C/C=C/C(C)=C/C(=O)O)c(C)c1C` [Acitretin] gave an IC50 of 3.5 ± 1.6 µM. The inhibition at 10 µM on human mPGES-1 (setting [3]) was found to be 83%.
In the case of `C[C@]12CC[C@@H]3c4ccc(OC(=O)N(CCCl)CCCl)cc4CC[C@H]3[C@@H]1CC[C@@H]2OP(=O)(O)O` [Estramustine Phosphate], on human mPGES-1, the inhibition at 10 µM worked out at 36%.
For the molecule `COc1cc2nc(N(C)CCCNC(=O)C3CCCO3)nc(N)c2cc1OC` (centres unmarked) [Alfuzosin], the inhibition at 10 µM on human mPGES-1 (setting [3]) came out at 22%.
With `CCCCC[C@H](O)/C=C/[C@H]1[C@H](O)CC(=O)[C@@H]1C/C=C\CCCC(=O)O` [Dinoprostone], the inhibition at 10 µM at human mPGES-1 (setting [3]) amounted to 4%.
For the molecule `COc1cc2nc(N3CCN(C(=O)C4COc5ccccc5O4)CC3)nc(N)c2cc1OC` (centres unmarked) [Doxazosin], at human mPGES-1 (setting [3]), the inhibition at 10 µM was found to be 21%.
At human mPGES-1, `C=C1/C(=C\C=C2/CCC[C@]3(C)[C@@H]([C@H](C)/C=C/[C@@H](O)C4CC4)CC[C@@H]23)C[C@@H](O)C[C@@H]1O` [Calcipotriene] yielded a half-maximal inhibitory concentration (IC50) of 3 ± 1.1 µM. Further, the inhibition at 10 µM at human mPGES-1 (setting [3]) was 68%.
On the same counts, the results for `COCC1=C(C(=O)OC(C)OC(=O)OC(C)C)N2C(=O)[C@@H](NC(=O)/C(=N\OC)c3csc(N)n3)[C@H]2SC1` (some centres unmarked) [Cefpodoxime Proxetil] are 29.7 ± 6.3 µM and 47%.
Turning to `CCOC(=O)[C@H](CCc1ccccc1)N[C@@H](C)C(=O)N1[C@H](C(=O)O)C[C@H]2CCCC[C@@H]21` [Trandolapril], the half-maximal inhibitory concentration (IC50) against human mPGES-1 stood at 9 ± 2.3 µM. Further, the inhibition at 10 µM at human mPGES-1 (setting [3]) amounted to 54%.
Consider `CC1(C)S[C@@H]2[C@H](NC(=O)COc3ccccc3)C(=O)N2[C@H]1C(=O)[O-].[K+]` [Penicillin V Potassium], for which, on human mPGES-1 (setting [3]), the “Inhibition (%) at 10 μM” value was 36%.
Turning to `OCCN(CCO)c1nc(N2CCCCC2)c2nc(N(CCO)CCO)nc(N3CCCCC3)c2n1` [Dipyridamole], the inhibition at 10 µM at human mPGES-1 (setting [3]) is 36%.
With `CCCCC[C@H](O)/C=C/[C@H]1[C@H](O)CC(=O)[C@@H]1CCCCCCC(=O)O` [Alprostadil], the inhibition at 10 µM at human mPGES-1 (setting [3]) was 11%.
On to `C[C@]12C=CC(=O)C=C1CC[C@@H]1[C@@H]2[C@@H](O)C[C@@]2(C)[C@H]1CC[C@]2(O)C(=O)CO` [Prednisolone], for which the inhibition at 10 µM on human mPGES-1 (setting [3]) was determined as 44%.
On to `CO/N=C(\C(=O)N[C@@H]1C(=O)N2C(C(=O)O)=C(CSc3nc(=O)c(=O)[nH]n3C)CS[C@H]12)c1csc(N)n1` [Ceftriaxone], for which, at human mPGES-1, the IC50 amounted to 7.2 ± 2.4 µM. The inhibition at 10 µM on human mPGES-1 (setting [3]) was 57%.
